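96-well plates; 48 h exposure; 5 concentrations. Endpoints by linear interpolation between flanking doses. Not reached: highest tested concentration assigned. GI50: concentration for 50% inhibition of growth. TGI: concentration producing complete growth inhibition.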
Tests used:
Test in all cases: inhibition of tumour cell growth, NCI panel, 48 h
SF-295 CNS = test system: SF-295 CNS
MCF7 breast = test system: MCF7 breast
SF-268 CNS = test system: SF-268 CNS
SK-MEL-5 melanoma = test system: SK-MEL-5 melanoma
UO-31 renal = test system: UO-31 renal
OVCAR-8 ovarian = test system: OVCAR-8 ovarian
ACHN renal = test system: ACHN renal
NCI-H226 lung = test system: NCI-H226 lung
LOX IMVI melanoma = test system: LOX IMVI melanoma
KM12 colon = test system: KM12 colon
SR leukemia = test system: SR leukemia
HCC-2998 colon = test system: HCC-2998 colon
TK-10 renal = test system: TK-10 renal
RPMI-8226 leukemia = test system: RPMI-8226 leukemia
CAKI-1 renal = test system: CAKI-1 renal
SN12C renal = test system: SN12C renal
M14 melanoma = test system: M14 melanoma
UACC-62 melanoma = test system: UACC-62 melanoma
SK-MEL-28 melanoma = test system: SK-MEL-28 melanoma
HCT-15 colon = test system: HCT-15 colon
U251 CNS = test system: U251 CNS
CCRF-CEM leukemia = test system: CCRF-CEM leukemia
OVCAR-4 ovarian = test system: OVCAR-4 ovarian
MOLT-4 leukemia = test system: MOLT-4 leukemia
SNB-75 CNS = test system: SNB-75 CNS
OVCAR-5 ovarian = test system: OVCAR-5 ovarian
A549 NSCLC = test system: A549 NSCLC
HCT-116 colon = test system: HCT-116 colon
HOP-62 NSCLC = test system: HOP-62 NSCLC
NCI-H23 lung = test system: NCI-H23 lung
NCI-H522 lung = test system: NCI-H522 lung
SK-OV-3 ovarian = test system: SK-OV-3 ovarian
SNB-19 CNS = test system: SNB-19 CNS
MDA-MB-231 breast = test system: MDA-MB-231 breast
HT29 colon = test system: HT29 colon
786-0 renal = test system: 786-0 renal
PC-3 prostate = test system: PC-3 prostate
SW-620 colon = test system: SW-620 colon
IGROV1 ovarian = test system: IGROV1 ovarian
T-47D breast = test system: T-47D breast
MDA-MB-435 = test system: MDA-MB-435
EKVX NSCLC = test system: EKVX NSCLC
COLO 205 colon = test system: COLO 205 colon
NCI/ADR-RES ovarian = test system: NCI/ADR-RES ovarian
A498 renal = test system: A498 renal
NCI-H460 lung = test system: NCI-H460 lung
MALME-3M melanoma = test system: MALME-3M melanoma
K-562 leukemia = test system: K-562 leukemia
HS 578T breast = test system: HS 578T breast
DU-145 prostate = test system: DU-145 prostate
RXF 393 renal = test system: RXF 393 renal
UACC-257 melanoma = test system: UACC-257 melanoma
BT-549 breast = test system: BT-549 breast
SF-539 CNS = test system: SF-539 CNS

In the case of `C#C[C@]1(O)CC[C@H]2[C@@H]3CC=C4c5sc(N6CCN(C)CC6)nc5CC[C@]4(C)[C@H]3CC[C@@]21C`, the GI50 (SF-295 CNS) is reported as 1870 nM, the TGI (SF-295 CNS) is reported as 3960 nM and the GI50 (MCF7 breast) is reported as 1830 nM. It also gave a TGI (MCF7 breast) of 3800 nM, a GI50 (SF-268 CNS) of 2010 nM and a TGI (SF-268 CNS) of 4310 nM. For the same compound, the GI50 (SK-MEL-5 melanoma) was 1740 nM, the TGI (SK-MEL-5 melanoma) was 3200 nM and the GI50 (UO-31 renal) was 1740 nM. It also gave a TGI (UO-31 renal) of 3170 nM, a GI50 (OVCAR-8 ovarian) of 1810 nM and a TGI (OVCAR-8 ovarian) of 3410 nM. It also gave a GI50 (ACHN renal) of 1790 nM, a TGI (ACHN renal) of 3250 nM and a GI50 (NCI-H226 lung) of 9830 nM. For the same compound, the TGI (NCI-H226 lung) was 28800 nM, the GI50 (LOX IMVI melanoma) was 1700 nM and the TGI (LOX IMVI melanoma) was 3330 nM. The GI50 (KM12 colon) was 1920 nM, the TGI (KM12 colon) was 4080 nM and the GI50 (SR leukemia) was 1560 nM. The TGI (SR leukemia) was 5390 nM, the GI50 (HCC-2998 colon) was 2060 nM and the TGI (HCC-2998 colon) was 4350 nM. The GI50 (TK-10 renal) was 2360 nM, the TGI (TK-10 renal) was 4550 nM and the GI50 (RPMI-8226 leukemia) was 1600 nM. The TGI (RPMI-8226 leukemia) was 4160 nM, the GI50 (CAKI-1 renal) was 1560 nM and the TGI (CAKI-1 renal) was 3080 nM. For the same compound, the GI50 (SN12C renal) was 1770 nM, the TGI (SN12C renal) was 3430 nM and the GI50 (M14 melanoma) was 1540 nM. The TGI (M14 melanoma) was 2970 nM, the GI50 (UACC-62 melanoma) was 1790 nM and the TGI (UACC-62 melanoma) was 3420 nM. It also gave a GI50 (SK-MEL-28 melanoma) of 1680 nM, a TGI (SK-MEL-28 melanoma) of 3190 nM and a GI50 (HCT-15 colon) of 1250 nM. The TGI (HCT-15 colon) was 2930 nM, the GI50 (U251 CNS) was 1510 nM and the TGI (U251 CNS) was 2870 nM. The GI50 (CCRF-CEM leukemia) was 2230 nM, the TGI (CCRF-CEM leukemia) was 4740 nM and the GI50 (OVCAR-4 ovarian) was 1940 nM. It also gave a TGI (OVCAR-4 ovarian) of 4020 nM, a GI50 (MOLT-4 leukemia) of 1890 nM and a TGI (MOLT-4 leukemia) of 4660 nM. It also gave a GI50 (SNB-75 CNS) of 1690 nM, a TGI (SNB-75 CNS) of 3870 nM and a GI50 (OVCAR-5 ovarian) of 1820 nM. It also gave a TGI (OVCAR-5 ovarian) of 3530 nM, a GI50 (A549 NSCLC) of 1830 nM and a TGI (A549 NSCLC) of 3390 nM. The GI50 (HCT-116 colon) was 1780 nM, the TGI (HCT-116 colon) was 3380 nM and the GI50 (HOP-62 NSCLC) was 1710 nM. For the same compound, the TGI (HOP-62 NSCLC) was 3270 nM, the GI50 (NCI-H23 lung) was 1760 nM and the TGI (NCI-H23 lung) was 3590 nM. The GI50 (NCI-H522 lung) was 1480 nM, the TGI (NCI-H522 lung) was 3300 nM and the GI50 (SK-OV-3 ovarian) was 1680 nM. The TGI (SK-OV-3 ovarian) was 3180 nM, the GI50 (SNB-19 CNS) was 1810 nM and the TGI (SNB-19 CNS) was 3750 nM. It also gave a GI50 (MDA-MB-231 breast) of 1930 nM, a TGI (MDA-MB-231 breast) of 3730 nM and a GI50 (HT29 colon) of 1760 nM. The TGI (HT29 colon) was 4180 nM, the GI50 (786-0 renal) was 1700 nM and the TGI (786-0 renal) was 3150 nM. It also gave a GI50 (PC-3 prostate) of 1610 nM, a TGI (PC-3 prostate) of 3070 nM and a GI50 (SW-620 colon) of 1810 nM. For the same compound, the TGI (SW-620 colon) was 3450 nM, the GI50 (IGROV1 ovarian) was 1870 nM and the TGI (IGROV1 ovarian) was 3620 nM. The GI50 (T-47D breast) was 12100 nM, the TGI (T-47D breast) was 30100 nM and the GI50 (MDA-MB-435) was 1160 nM. For the same compound, the TGI (MDA-MB-435) was 2530 nM, the GI50 (EKVX NSCLC) was 1840 nM and the TGI (EKVX NSCLC) was 3830 nM. For the same compound, the GI50 (COLO 205 colon) was 1980 nM, the TGI (COLO 205 colon) was 3830 nM and the GI50 (NCI/ADR-RES ovarian) was 2180 nM. The TGI (NCI/ADR-RES ovarian) was 5710 nM, the GI50 (A498 renal) was 4250 nM and the TGI (A498 renal) was 16900 nM. It also gave a GI50 (NCI-H460 lung) of 1990 nM, a TGI (NCI-H460 lung) of 3800 nM and a GI50 (MALME-3M melanoma) of 1760 nM. The TGI (MALME-3M melanoma) was 3280 nM, the GI50 (K-562 leukemia) was 1340 nM and the TGI (K-562 leukemia) was 4500 nM. It also gave a GI50 (HS 578T breast) of 2420 nM, a TGI (HS 578T breast) of 8440 nM and a GI50 (DU-145 prostate) of 2230 nM. For the same compound, the TGI (DU-145 prostate) was 5130 nM, the GI50 (RXF 393 renal) was 1420 nM and the TGI (RXF 393 renal) was 3050 nM. It also gave a GI50 (UACC-257 melanoma) of 1770 nM, a TGI (UACC-257 melanoma) of 3270 nM and a GI50 (BT-549 breast) of 1900 nM. For the same compound, the TGI (BT-549 breast) was 3950 nM, the GI50 (SF-539 CNS) was 1450 nM and the TGI (SF-539 CNS) was 2900 nM.

— PubChem BioAssay (NCI)
